From patent US20130102631A1, “NOVEL MICROBIOCIDAL DIOXIME ETHER DERIVATIVES” (SYNGENTA CROP PROTECTION LLC, priority 2010, published 2013)

What was measured:
[1] = test system: Puccinia recondita f. sp. tritici; assay: Puccinia recondita f. sp. tritici / wheat / leaf disc preventative (brown rust); format: in vivo; settings: foliar, wheat leaf segments cv Kanzler, inoculated 1 day after application, assessed 7-9 days after application
Experimental: Puccinia recondita f. sp. Tritici/Wheat/Leaf Disc Preventative (Brown Rust): Wheat leaf segments cultivated variety (cv) Kanzler were placed on agar in 24-well plates and sprayed with formulated test compound diluted in water at an application rate of 200 ppm. The leaf disks were inoculated with a spore suspension of the fungus 1 day after application. The inoculated leaf segments were incubated at 19° C. and 75% relative humidity under a light regime of 12/12 h (light/dark) in a climate cabinet and the activity of a compound was assessed as percent disease control compared to untreated when an appropriate level of disease damage appears in untreated check leaf segments (7-9 days after application). […]-2.508; 5.561; 2.561; 2.513; 2.559; 2.556; 2.555; 2.374; 2.544; 2.537; 2.530; 2.525 (fraction B); 2.519; 2.516; 2.514; E/E-5.167; E/E-3.002; 2.512; E/E-2.507

[2] = test system: Mycosphaerella arachidis (Cercospora arachidicola); assay: Mycosphaerella arachidis (Cercospora arachidicola) / liquid culture (early leaf spot); format: cell-based; settings: at ≦200 ppm, liquid culture PDB, inhibition of growth photometrically 4-5 days after application, read-out: control of Mycosphaerella arachidis
In short: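 Cryostored Cercospora arachidicola conidia were mixed into potato dextrose broth and added to test compound in DMSO. Incubation was at 24° C. Growth inhibition was read photometrically 4-5 days after application.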

[3] = test system: Gaeumannomyces graminis; assay: Gaeumannomyces graminis / liquid culture (take-all of cereals); format: cell-based; settings: at ≦200 ppm, liquid culture PDB, inhibition of growth photometrically 4-5 days after application, read-out: control of Gaeumannomyces graminis
In short: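 Mycelial fragments of the fungus in potato dextrose broth were added to wells containing compound in DMSO. Plates were incubated at 24° C, and growth inhibition was read photometrically 4-5 days after application.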

[4] = test system: Monographella nivalis (Microdochium nivale); assay: Monographella nivalis (Microdochium nivale) / liquid culture (foot rot cereals); format: cell-based; settings: at ≦200 ppm, liquid culture PDB, inhibition of growth photometrically 4-5 days after application, read-out: control of Monographella nivalis
In short: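 Microdochium nivale conidia in potato dextrose broth added to compound delivered in DMSO, then incubated at 24 °C. Growth inhibition measured photometrically 4-5 days after application.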

[5] = test system: Blumeria graminis f. sp. tritici (Erysiphe graminis f. sp. tritici); assay: Blumeria graminis f. sp. tritici / wheat / leaf disc preventative (powdery mildew on wheat); format: in vivo; settings: foliar, wheat leaf segments cv. Kanzler, inoculated 1 day after application, assessed 6-8 days after application
In short: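 Wheat cv. Kanzler leaf segments on agar sprayed with formulated compound at 200 ppm, inoculated 1 day later with powdery mildew, incubated at 20° C, 60% RH (24 h dark then 12 h/12 h). Percent disease control versus untreated scored 6-8 days after application.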

[6] = test system: Thanatephorus cucumeris (Rhizoctonia solani); assay: Thanatephorus cucumeris (Rhizoctonia solani) / liquid culture (foot rot, damping-off); format: cell-based; settings: at ≦200 ppm, liquid culture PDB, inhibition of growth photometrically 3-4 days after application, read-out: control of Thanatephorus cucumeris
Experimental: Thanatephorus cucumeris (Rhizoctonia solani)/Liquid Culture (Foot Rot, Damping-Off Mycelia fragments of a newly grown liquid culture of the fungus are directly mixed into nutrient broth (PDB potato dextrose broth). After placing a DMSO solution of the test compounds into a 96-well microtiter, the nutrient broth containing the fungal material was added. The test plates were incubated at 24° C. and the inhibition of growth was determined photometrically 3-4 days after application. […]-2.508 5.561; 2.561; P.57; 2.513; 2.559; 2.558; 2.553; 2.533; 2.530; 2.526; 2.519; 2.517; 2.516; 2.514; 2.512; 2.514

COc1cccc(/C(C)=N/OCC(C)(C)CO/N=C2\CCCc3ccc(C)nc32)n1 [Compound 2.374]
≥ 80%: pest or weed control at 200 ppm [1] | inhibition of growth at up to 200 µg/mL [2] | inhibition of growth at up to 200 µg/mL [3] | inhibition of growth at up to 200 µg/mL [4] | pest or weed control at 200 ppm [5]

C/C(=N\OCC(C)(C)CO/N=C1\CCCc2ccc(C)nc21)c1ccc2ccccc2n1 [Compound 2.512]
≥ 80%: pest or weed control at 200 ppm [1] | inhibition of growth at up to 200 µg/mL [2] | inhibition of growth at up to 200 µg/mL [3] | inhibition of growth at up to 200 µg/mL [6] | inhibition of growth at up to 200 µg/mL [4] | pest or weed control at 200 ppm [5]

C/C(=N\OCC(C)(C)CO/N=C1\CCCc2ccc(C)nc21)c1ccc2c(n1)CCCC2 [Compound 2.513]
≥ 80%: pest or weed control at 200 ppm [1] | inhibition of growth at up to 200 µg/mL [2] | inhibition of growth at up to 200 µg/mL [3] | inhibition of growth at up to 200 µg/mL [6] | inhibition of growth at up to 200 µg/mL [4] | pest or weed control at 200 ppm [5]

C/C(=N\OCCCO/N=C1\CCCc2ccc(C)nc21)c1cccc(-c2ccccc2)n1 [Compound 2.514]
≥ 80%: pest or weed control at 200 ppm [1] | inhibition of growth at up to 200 µg/mL [2] | inhibition of growth at up to 200 µg/mL [3] | inhibition of growth at up to 200 µg/mL [6] | inhibition of growth at up to 200 µg/mL [4] | pest or weed control at 200 ppm [5]

CC/C(=N\OCC(C)(C)CO/N=C1\CCCc2ccc(C)nc21)c1ccccn1 [Compound 2.516]
≥ 80%: pest or weed control at 200 ppm [1] | inhibition of growth at up to 200 µg/mL [2] | inhibition of growth at up to 200 µg/mL [3] | inhibition of growth at up to 200 µg/mL [6] | inhibition of growth at up to 200 µg/mL [4] | pest or weed control at 200 ppm [5]

C/C(=N/OCC(C)(C)CO/N=C1\CCCc2ccc(C)nc21)c1ccccn1 [Compound 2.519]
≥ 80%: pest or weed control at 200 ppm [1] | inhibition of growth at up to 200 µg/mL [2] | inhibition of growth at up to 200 µg/mL [3] | inhibition of growth at up to 200 µg/mL [6] | inhibition of growth at up to 200 µg/mL [4] | pest or weed control at 200 ppm [5]

Cc1ccc2c(n1)/C(=N/OCC(C)(C)CO/N=C/c1cccc(Oc3ccccc3)n1)CCC2 [Compound 2.530]
≥ 80%: pest or weed control at 200 ppm [1] | inhibition of growth at up to 200 µg/mL [2] | inhibition of growth at up to 200 µg/mL [6] | inhibition of growth at up to 200 µg/mL [4] | pest or weed control at 200 ppm [5]

Cc1ccc(O)c(/C=N/OCC(C)(C)CO/N=C2\CCCc3ccc(C)nc32)n1 [Compound 2.533]
≥ 80%: inhibition of growth at up to 200 µg/mL [2] | inhibition of growth at up to 200 µg/mL [3] | inhibition of growth at up to 200 µg/mL [6] | inhibition of growth at up to 200 µg/mL [4] | pest or weed control at 200 ppm [5]

C/C(=N\OCC(C)(C)CO/N=C1\CCCc2ccc(Cl)nc21)c1cc(C)cc(C)n1 [Compound 2.555]
≥ 80%: pest or weed control at 200 ppm [1] | inhibition of growth at up to 200 µg/mL [2] | inhibition of growth at up to 200 µg/mL [3] | inhibition of growth at up to 200 µg/mL [4] | pest or weed control at 200 ppm [5]

C/C(=N\OCC(C)(C)CO/N=C1\CCCc2ccc(Oc3ccccc3)nc21)c1cc(C)cc(C)n1 [Compound 2.556]
≥ 80%: pest or weed control at 200 ppm [1] | inhibition of growth at up to 200 µg/mL [2] | inhibition of growth at up to 200 µg/mL [3] | inhibition of growth at up to 200 µg/mL [4] | pest or weed control at 200 ppm [5]

C/C(=N\OCC(C)(C)CO/N=C1\CCCc2ccc(-c3cccc(C)n3)nc21)c1cc(C)cc(C)n1 [Compound 2.559]
≥ 80%: pest or weed control at 200 ppm [1] | inhibition of growth at up to 200 µg/mL [2] | inhibition of growth at up to 200 µg/mL [3] | inhibition of growth at up to 200 µg/mL [6] | inhibition of growth at up to 200 µg/mL [4] | pest or weed control at 200 ppm [5]

C/C(=N\OCC(C)(C)CO/N=C1\CCCc2c1nc1ccccc1c2C)c1cc(C)cc(C)n1 [Compound 2.561]
≥ 80%: pest or weed control at 200 ppm [1] | inhibition of growth at up to 200 µg/mL [2] | inhibition of growth at up to 200 µg/mL [3] | inhibition of growth at up to 200 µg/mL [6] | pest or weed control at 200 ppm [5]

C/C(=N\OCC1(CO/N=C2\CCCc3c2nc2ccccc2c3C)CC1)c1cc(C)cc(C)n1 [Compound 5.561]
≥ 80%: pest or weed control at 200 ppm [1] | inhibition of growth at up to 200 µg/mL [2] | inhibition of growth at up to 200 µg/mL [3] | inhibition of growth at up to 200 µg/mL [6] | pest or weed control at 200 ppm [5]

C/C(=N\OCC(C)(C)CO/N=C1\CCCc2ccc(C)nc21)c1cccc(C)n1 [E/E-2.002]
≥ 80%: pest or weed control at 200 ppm [1] | inhibition of growth at up to 200 µg/mL [2] | inhibition of growth at up to 200 µg/mL [3] | inhibition of growth at up to 200 µg/mL [6] | inhibition of growth at up to 200 µg/mL [4] | pest or weed control at 200 ppm [5]

C/C(=N\OCC(C)(C)CO/N=C1\CCCc2ccc(C)nc21)c1cc(C)cc(C)n1 [E/E-2.168]
≥ 80%: pest or weed control at 200 ppm [1] | inhibition of growth at up to 200 µg/mL [2] | inhibition of growth at up to 200 µg/mL [3] | inhibition of growth at up to 200 µg/mL [6] | inhibition of growth at up to 200 µg/mL [4] | pest or weed control at 200 ppm [5]

Cc1cccc(/C(=N/OCC(C)(C)CO/N=C2\CCCc3ccc(C)nc32)c2ccccc2)n1 [E/E-2.474]
≥ 80%: pest or weed control at 200 ppm [1] | inhibition of growth at up to 200 µg/mL [2] | inhibition of growth at up to 200 µg/mL [3] | inhibition of growth at up to 200 µg/mL [6] | inhibition of growth at up to 200 µg/mL [4] | pest or weed control at 200 ppm [5]

Cc1ccc2c(n1)/C(=N/OCC(C)(C)CO/N=C/c1ccc3ccccc3n1)CCC2 [E/E-2.507]
≥ 80%: pest or weed control at 200 ppm [1] | inhibition of growth at up to 200 µg/mL [2] | inhibition of growth at up to 200 µg/mL [3] | inhibition of growth at up to 200 µg/mL [6] | inhibition of growth at up to 200 µg/mL [4]

C/C(=N\OCC(C)(C)CO/N=C1\CCCc2ccc(C)nc21)c1cccc(Br)n1 [E/E-2.508]
≥ 80%: pest or weed control at 200 ppm [1] | inhibition of growth at up to 200 µg/mL [2] | inhibition of growth at up to 200 µg/mL [3] | inhibition of growth at up to 200 µg/mL [6] | inhibition of growth at up to 200 µg/mL [4]

C=C(CO/N=C(\C)c1cccc(C)n1)CO/N=C1\CCCc2ccc(C)nc21 [E/E-3.002]
≥ 80%: pest or weed control at 200 ppm [1] | inhibition of growth at up to 200 µg/mL [2] | inhibition of growth at up to 200 µg/mL [3] | pest or weed control at 200 ppm [5]

C/C(=N\OCC1(CO/N=C2\CCCc3ccc(C)nc32)CC1)c1cc(C)cc(C)n1 [E/E-5.167]
≥ 80%: pest or weed control at 200 ppm [1] | inhibition of growth at up to 200 µg/mL [2] | inhibition of growth at up to 200 µg/mL [3] | inhibition of growth at up to 200 µg/mL [4] | pest or weed control at 200 ppm [5]
